Laboratory results from US20050159596A1, “Cyclic compounds and their use as complex ligands” (Basf Aktiengesellschaft, priority 2002, published 2005).

Legend:
[1] = Solubility in organic solvents; format: physicochemical; conditions: for solubility (in words): compared with methanol, ethanol and acetonitrile; for solubility: organic solvent or mixture; for solubility in organic solvents (in words): all organic solvents

Row | melting point | solubility (in words) ([1]; in chloroform) | solubility (in words) ([1]; in dimethylformide) | solubility ([1]; in acetonitrile) | solubility ([1]; in ethanol) | solubility ([1]; in methanol) | Structure (SMILES) | solubility in organic solvents (in words) [1]
1 | 358 to 362 °C | improved | improved | < 1 µM | < 1 µM | < 1 µM | c1cc(-c2cccc3nc(-c4nc5cccc(-c6cccc7ncoc67)c5o4)oc23)c2ocnc2c1 [Compound 13, 7,7′:2′,2″:7′″,7′″-Quaterbenzoxazole] | 
2 |  |  |  |  |  |  | c1cc2c3oc(nc3c1)-c1cccc3nc(oc13)-c1cccc3nc(oc13)-c1cccc3nc-2oc13 [Compound 5, Cyclo-2,7′:2′,7″:2′″,7′″:2′″,7-quaterbenzoxazole] | very limited solubility
3 |  |  |  |  |  |  | c1cc2c3[nH]c(nc3c1)-c1cccc3nc([nH]c13)-c1cccc3nc([nH]c13)-c1cccc3nc-2[nH]c13 [Compound 8, Cyclo-2,4′:2′,7″:2″4′″:2′″,7-quaterbenzimidazole] | even lower solubility in organic solvents than compound (5)
